Data as given in patent US20070160664A1, “Pharmaceutical compositions comprising of proton pump inhibitor and prokinetic agent” (PANACEA BIOTEC LIMITED, priority 2004, published 2007).

Assay: Dissolution of domperidone co-processed with an organic acid (developmental studies)
Assay type: physicochemical
Settings: alkaline pH conditions encountered in the gastro-intestinal tract
Description: According to a preferred embodiment of the invention, domperidone is co-processed with an organic acid in the ratio of from about 1:0.25 to about 0.25:1, preferably from about 1:0.5 to about 0.5:1, most preferably about 1:1. The co-processing may be aided by dissolving the two ingredients with the help of heat followed by cooling, when the dissolved material separates out. The material separated out may be removed and dried. The co-processed material may be incorporated into dosage forms such as tablets, which may further be combined with enteric coated tablets of proton pump inhibitor and an immediate release tablet of domperidone, in a hard gelatin capsule.

O=c1[nH]c2ccccc2n1CCCN1CCC(n2c(=O)[nH]c3cc(Cl)ccc32)CC1 [domperidone]
dissolution: improved dissolution
